Assay results taken from US8809539B2, “Dicarboxylic acid derivatives as S1P1 receptor agonists” (Bioprojet, priority 2007, dated 2014).
One block for each molecule: values may come before it.

Assays:
[1] = target: T1, Edg1 (S1P1 receptor) (Homo sapiens, UniProt P21453); test: GTP-γ-35S binding, agonist activity at Edg1 (S1P1); type: biochemical; conditions: membranes of transfected HEK 293 or CHOK1 cells, [35S]GTP-γ-S; read-out: In-Vitro potency EC50 (nM) Edg1
T1 construct: expressed in transfected cells; host or cells: HEK 293 or CHOK1 (membranes)
Text: Human S1P1-5 receptor subtypes were stably expressed in high levels in HEK 293 or CHOK1 cells following transfection with corresponding plasmid constructs. Although the native cells somewhat respond to S1P, the level of expression and responsiveness of the antibiotic-resistant transfected cell lines that were selected is much higher.
When cultivated cells reached 80% confluence, they were collected and, after lysis, cell membranes were collected by centrifugation and washed in buffer containing antiproteases.
GTP-γ-^35S binding was performed using ˜5 μg protein of cell membranes suspended in 50 mM tris-HCl pH 7.5 containing 10 mM MgCl2, 100 mM NaCl and 10 μM GDP. The radioligand was 0.025 nM [^35S] GTP-γ-S and non specific binding determined in the presence of 10 μM non-radioactive GTP-γ-S. S1P and receptor agonists enhance the specific binding whereas inverse agonists reduce it. The maximal stimulation elicited by S1P was taken as a reference to define full or partial agonism and calculate the intrinsic activity (i.a.) of compounds.

[2] = system: blood lymphocytes (S1P1 receptors in vivo); test: Lymphopenia in vivo after oral administration; conditions: Swiss mice; for ED50: Mus musculus, Lymphocyte, at 24 h
Description: Lymphopenia was assessed in vivo. Experiments were done in Swiss mice strain (n=5 per condition). Compounds were administered orally in suspension in methyl-cellulose 1% from 1 h 30 until 48 hours before the experiments. Blood was taken on anesthetized animal (4% isoflurane) and samples collected in EDTA-containing vacuum tubes. After 5 minutes stirring, cells were counted using ABC vet hemocytometer (Scil vet animal Care)

[3] = target: T2, Edg3 (S1P3 receptor) (Homo sapiens, UniProt Q99500); test: GTP-γ-35S binding, agonist activity at Edg3 (S1P3); type: biochemical; conditions: membranes of transfected HEK 293 or CHOK1 cells, [35S]GTP-γ-S; read-out: In-Vitro potency EC50 (nM) Edg3
T2 construct: expressed in transfected cells; host or cells: HEK 293 or CHOK1 (membranes)
Text: (§1) Human S1P1-5 receptor subtypes were stably expressed in high levels in HEK 293 or CHOK1 cells following transfection with corresponding plasmid constructs. Although the native cells somewhat respond to S1P, the level of expression and responsiveness of the antibiotic-resistant transfected cell lines that were selected is much higher. When cultivated cells reached 80% confluence, they were collected and, after lysis, cell membranes were collected by centrifugation and washed in buffer containing antiproteases. GTP-γ-^35S binding was performed using ˜5 μg protein of cell membranes suspended in 50 mM tris-HCl pH 7.5 containing 10 mM MgCl2, 100 mM NaCl and 10 μM GDP. The radioligand was 0.025 nM [^35S] GTP-γ-S and non specific binding determined in the presence of 10 μM non-radioactive GTP-γ-S. S1P and receptor agonists enhance the specific binding whereas inverse agonists reduce it. The maximal stimulation elicited by S1P was taken as a reference to define full or partial agonism and calculate the intrinsic activity (i.a.) of compounds.

[4] = target: T3, Edg5 (Homo sapiens, UniProt O95136); test: GTP-γ-35S binding, agonist activity at Edg5; type: biochemical; conditions: membranes of transfected HEK 293 or CHOK1 cells, [35S]GTP-γ-S; read-out: In-Vitro potency EC50 (nM) Edg5
T3 construct: expressed in transfected cells; host or cells: HEK 293 or CHOK1 (membranes)
Text: as §1

T1 sequence (P21453 whole entry): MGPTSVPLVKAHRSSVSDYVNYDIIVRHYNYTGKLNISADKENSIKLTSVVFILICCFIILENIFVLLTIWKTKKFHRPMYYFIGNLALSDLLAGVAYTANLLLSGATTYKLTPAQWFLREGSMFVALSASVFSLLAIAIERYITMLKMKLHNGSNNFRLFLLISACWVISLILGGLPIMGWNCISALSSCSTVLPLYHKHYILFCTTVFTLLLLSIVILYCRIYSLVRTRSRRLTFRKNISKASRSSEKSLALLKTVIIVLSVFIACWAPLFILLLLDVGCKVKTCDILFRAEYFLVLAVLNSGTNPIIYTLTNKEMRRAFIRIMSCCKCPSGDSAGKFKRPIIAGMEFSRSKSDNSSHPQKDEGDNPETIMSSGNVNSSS
T3 sequence (O95136 whole entry): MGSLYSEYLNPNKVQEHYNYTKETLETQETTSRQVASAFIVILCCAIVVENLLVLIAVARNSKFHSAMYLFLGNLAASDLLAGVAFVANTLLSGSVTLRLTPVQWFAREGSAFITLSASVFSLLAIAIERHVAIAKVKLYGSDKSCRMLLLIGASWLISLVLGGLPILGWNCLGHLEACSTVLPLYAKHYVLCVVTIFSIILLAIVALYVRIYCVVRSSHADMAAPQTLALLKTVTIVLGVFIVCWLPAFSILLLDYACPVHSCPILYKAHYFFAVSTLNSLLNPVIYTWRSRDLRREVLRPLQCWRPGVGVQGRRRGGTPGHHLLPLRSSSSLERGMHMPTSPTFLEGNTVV
T2 sequence (Q99500 whole entry): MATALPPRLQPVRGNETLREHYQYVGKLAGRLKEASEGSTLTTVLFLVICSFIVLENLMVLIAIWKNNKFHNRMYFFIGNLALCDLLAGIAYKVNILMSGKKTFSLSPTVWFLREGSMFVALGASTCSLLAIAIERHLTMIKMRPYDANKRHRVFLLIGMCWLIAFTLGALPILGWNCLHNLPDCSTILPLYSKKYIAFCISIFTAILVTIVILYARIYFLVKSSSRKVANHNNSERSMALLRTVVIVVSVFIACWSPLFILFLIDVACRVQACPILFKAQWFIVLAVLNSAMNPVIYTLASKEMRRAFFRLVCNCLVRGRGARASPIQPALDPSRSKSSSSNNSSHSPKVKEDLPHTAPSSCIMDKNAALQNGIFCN

Structure (SMILES): COC(=O)C1(C(=O)O)CCN(Cc2ccc(-c3noc(-c4ccc(CC(C)C)cc4)n3)cc2)CC1 [Example 8]
ED50 [2]: 3.5 mg/kg

Structure (SMILES): O=C(O)C1(C(=O)O)CCN(Cc2ccc(-c3noc(-c4ccc(-c5ccccc5)cc4)n3)cc2)CC1 [Example 15]
EC50 [1]: 0.7 nM
EC50 [3]: > 1000 nM
EC50 [4]: > 1000 nM

Structure (SMILES): CO/N=C(/c1ccco1)c1nc(-c2ccc(CN3CCC(C(=O)O)(C(=O)O)CC3)cc2)no1 [Example 22]
EC50 [1]: 2.2 nM
EC50 [3]: > 1000 nM
EC50 [4]: > 1000 nM

Structure (SMILES): C=C(C)[C@@H]1CC=C(c2nc(-c3ccc(CN4CCC(C(=O)O)(C(=O)O)CC4)cc3)no2)CC1 [Example 25]
EC50 [1]: 1.7 nM

Structure (SMILES): Cl.O=C(O)C1(C(=O)O)CC(NCc2ccc(-c3noc(-c4ccc(-c5ccccc5)c(F)c4)n3)cc2)C1 [Example 49]
% lymphopenia ([2]; at 10 mg/kg, after 24 h): at 10 mg/kg 86% lymphopenia after 24 h

Now from value to molecule, other results behind:

EC50 [1]: 11.8 nM
Structure (SMILES): COC(=O)C1(C(=O)O)CC(N(C)Cc2ccc(-c3noc(-c4ccc(CC(C)C)cc4)n3)cc2)C1 (single isomer, unassigned) [Example 54]

EC50 [1]: 6.3 nM
Structure (SMILES): CC(C)(C)C(=O)COC(=O)C1(C(=O)O)CCN(Cc2ccc(-c3noc(-c4ccc(-c5ccccc5)c(F)c4)n3)cc2)CC1 [Example 62, 1-{4-[5-(2-fluorobiphenyl-4-yl)[1,2,4]oxadiazol-3-yl]benzyl}-piperidine-4,4-dicarboxylic acid (3,3-dimethyl-2-oxobutyl)ester]
ED50 [2]: 0.03 mg/kg
